{
  "source": "patent US20200123127A1",
  "about": "“REMOVAL OF SENESCENCE-ASSOCIATED MACROPHAGES” (EVERON BIOSCIENCES, INC., priority 2016, published 2020)",
  "key": {"[1]": {"system": "adult rat dermal fibroblasts (RDF)", "experiment": "Resazurin viability assay, senescent vs proliferating rat dermal fibroblasts", "format": "cell-based", "settings": "for IC50: Rattus norvegicus, Fibroblast", "experimental": "Cytotoxicity of A1.1 analogs against bleomycin-induced senescent human NDFs and rat dermal fibroblasts (RDFs). Activity of analogs was assessed from dose-response curves against irradiation- or bleomycin-induced senescent and proliferating cells to calculate IC50s (uM). The fold difference of proliferating versus senescent cell IC50s was used to assess the level of specific anti-senescent activity of the compounds.\nFor generation senescent human neonatal dermal fibroblasts (NDFs) and adult rat dermal fibroblasts (RDFs), cells are treated at ˜10 ug/ml bleomycin for 3 days (for bleomycin-induced senescence) or irradiated once at 20 Gy using a gamma irradiator (Cs source), followed by at least 7 day recovery in fresh medium for induction of senescence. Senescent and non-senescent (proliferating) cells for each cell line are plated into 384-w plate, followed by 72 hour exposure to a dose titration of compounds. Viability measurements are estimated using the resazurin viability assay. Using GraphPad Prism 5, the IC50 values are calculated from the non-linear regression of log-transformed compound concentrations versus dose-response normalized to background and non-treated controls."}, "[2]": {"system": "chronologically aging mice", "experiment": "Survival and frailty index of chronologically aging mice", "format": "in vivo, mouse", "settings": "for survival rates vs control groups: OT-82: after 6 courses, 111 weeks of age, asenins: treated weeks 77-97, at 112 weeks of age", "experimental": "FIG. 11. OT-82 effects on survival and frailty index of old mice. (A) Male and female mice were treated with OT-82 or with vehicle alone as a negative control. Survival was measured over the course of six treatments.\nFIG. 12. Effects of asenins TA-3899 and TA-4812 on survival and frailty index of old mice. Results are provided on a background of FI of mice of the similar age, aged normally without any treatments (black color). Difference between FI of males receiving 3899 and intact mice is statistically significant (p=0.02).\nFrailty Index (FI) was determined for individual mice as described previously (Antoch et al. Aging. 2017; 9: 1-12) using a 26 week-old group as a “young mouse” reference. For each mouse, various parameters were measured. These parameters include non-invasive measurements, including age, body weight, grip strength, diastolic blood pressure, and tail blood flow. Additional blood chemistry measurements were also determined, including white blood cell count, neutrophil count, neutrophil percentage, lymphocyte percentage, monocyte percentage, eosinophil percentage, red blood cell count, hemoglobin, hematocrit, mean corpuscular volume, mean corpuscular hemoglobin, mean corpuscular hemoglobin concentration, platelet count, and mean platelet volume. For each parameter mean value and standard deviation were calculated. Animals differing by more than one standard deviation (STDEV) from mean value in any single parameter were excluded from the reference group. Values for each measured parameter were compared with corresponding values for the reference group and assigned a score. The number of deficits an individual mouse expressed was calculated as a ratio of total number of parameters measured and this value is referred to as the frailty index.\nAsenins TA-3899 and TA-4812 were evaluated for their effects on survival and frailty index in a model of chronologic aging mice. Treatment lasted for 20 weeks (weeks 77-97 of age). […] Frailty index of males was measured at week 109."}, "[3]": {"system": "p16(Ink4a) expression in adipose tissue macrophages", "experiment": "Poly(I:C) in chronologically aged p16Ink4a/Luc mice", "format": "in vivo, mouse", "experimental": "Given that macrophages contribute to the elevated p16(Ink4a) expression observed in aged mice, we investigated whether this expression was susceptible to immunomodulatory regulation. Chronologically aged mice (83-weeks old) were treated with Poly(I:C) and the luminescence of individual organs was quantitated via IVIS. […] Thus, the observed decrease in the luciferase signal in adipose tissue upon treatment with Poly(I:C) was not accompanied by the depletion of macrophages."}, "[4]": {"system": "B16 cells", "experiment": "In vitro growth and viability of B16 cells (resazurin)", "format": "cell-based", "settings": "72 hour exposure, up to 20 uM", "text": "FIG. 4. Efficacy of A1.1 analogs in the senescence-enhanced B16 metastasis model. (A) Quantification of metastatic nodules by H&E morphometric analysis, and the resulting reduction in tumor burden (%) compared to vehicle control. (B) Quantitation morphometric analysis of lungs excised from irradiated mice treated with analogs of A1.1 post-inoculation of B16 cell intravenously, along with quantitation of morphometric analysis, are provided. (C) In vitro testing of A1.1 and analogs against the growth and viability of B16 cells, as assessed by the resazurin viability assay after 72 hour exposure to compounds compared to non-treated controls.\nThe role of senescent cells in the promotion of metastatic potential of cancer cells has also been described [Patent WO 2013090645 A1; Campisi, J. (2015). Cancer and Aging: Rival Demons]. […] To test the efficacy of A1.1, irradiated (11 Gy followed by bone-marrow transplantation) and non-irradiated C57BL/6 mice received B16 melanoma cells via tail vein injection were subsequently (72 hours later) administered A1.1 (20 mg/kg) intraperitoneally once a day for 5 consecutive days.\nSynthesized analogs were also tested in vivo, to assess whether optimized structures are capable of showing activity against senescence-mediated B16 lung metastasis in irradiated mice (FIG. 4B). […]"}, "[5]": {"settings": "light or radiation study, senescent RDF, irradiation-induced, 72 hour exposure, resazurin, read-out: IC50 RDFsen.irr"}, "[6]": {"settings": "proliferating RDF, 72 hour exposure, resazurin, read-out: IC50 RDFprolif"}, "[7]": {"settings": "senescent RDF, bleomycin-induced, 72 hour exposure, resazurin, read-out: IC50 RDFsen.bleo"}},
  "note": "Read-outs that look alike come from different tables or passages of the source.",
  "data": [
    {"molecule": "COc1ccc(C2CC(=NO)c3c(SCc4ccccc4)sc(C(=O)NCc4cccc(F)c4)c3C2)cc1", "note": "(centres unmarked) [Example A1.6, 3-(Benzylthio)-N-(3-fluorobenzyl)-4-(hydroxyimino)-6-(4-methoxyphenyl)-4,5,6,7-tetrahydrobenzo[c]thiophene-1-carboxamide]", "values": [
      {"measurement": "IC50", "setting": "[1]; [5]", "value": "< 5", "unit": "µM"},
      {"measurement": "IC50", "setting": "[1]; [6]", "value": "> 20", "unit": "µM"},
      {"measurement": "IC50", "setting": "[1]; [7]", "value": "< 5", "unit": "µM"},
      {"measurement": "survival rates vs control groups", "setting": "[2]", "value": "no statistical significance"}
    ]},
    {"molecule": "O=C(NCCCc1cn[nH]c1)c1ccc(-c2ccncc2)c(C#Cc2ccc(F)cc2)c1", "note": "[OT-82]", "values": [
      {"measurement": "survival rates vs control groups", "setting": "[2]", "value": "no effects on survival rates"},
      {"measurement": "frailty index (FI) of males", "setting": "[2]; OT-82, chronically aged mice", "value": "positive effects"},
      {"measurement": "survival of treated males", "setting": "[2]; after 6 courses of treatment, 111 weeks of age (55% in vehicle control group)", "value": 45, "unit": "%"},
      {"measurement": "survival of treated females", "setting": "[2]; after 6 courses of treatment, 111 weeks of age (60% in vehicle group)", "value": 65, "unit": "%"}
    ]},
    {"molecule": "Poly(I:C)", "values": [
      {"measurement": "luminescence of other tissues (spleen, lungs, kidney, liver)", "setting": "[3]; 83-weeks old mice", "value": "no significant effects"},
      {"measurement": "reduction in luminescence from visceral adipose tissue", "setting": "[3]; 83-weeks old mice, IVIS of organs", "value": "~4", "unit": "fold"},
      {"measurement": "luciferase activity from isolated stromal vascular fraction vs saline", "setting": "[3]; per cell or per gram of fat", "value": "significantly decreased"}
    ]},
    {"molecule": "CCOC(=O)c1sc(SCc2ccccc2)c2c1CC(c1ccc(OC)cc1)C/C2=N\\O", "note": "(centres unmarked) [Example A1.1]", "values": [
      {"measurement": "Selectivity (Prolif/Sen)", "setting": "[1]; RDF, Bleomycin", "value": ">4.6"},
      {"measurement": "Selectivity (Prolif/Sen)", "setting": "[1]; RDF, Irradiation", "value": ">4.4"},
      {"measurement": "IC50", "setting": "[1]; light or radiation study, RDF, senescence induction: Irradiation, read-out: Activity against Senescent Cells (IC50; uM)", "value": 4.5, "unit": "µM"},
      {"measurement": "IC50", "setting": "[1]; [5]", "value": "< 5", "unit": "µM"},
      {"measurement": "IC50", "setting": "[1]; RDF proliferating, read-out: Activity against Proliferating Cells (IC50; uM)", "value": "> 20", "unit": "µM"},
      {"measurement": "IC50", "setting": "[1]; RDF, senescence induction: Bleomycin, read-out: Activity against Senescent Cells (IC50; uM)", "value": 4.4, "unit": "µM"},
      {"measurement": "IC50", "setting": "[1]; [6]", "value": "> 20", "unit": "µM"},
      {"measurement": "IC50", "setting": "[1]; [7]", "value": "< 10", "unit": "µM"},
      {"measurement": "B16 growth in vitro", "setting": "[4]", "value": "did not inhibit"}
    ]}
  ]
}
